Here are results for one molecule from patent publication US20160271268A1, “NUCLEIC ACID NANOSTRUCTURES FOR IN VIVO AGENT DELIVERY” (DANA-FARBER CANCER INSTITUTE, INC., priority 2013, published 2016).

Peptide text beside a SMILES is read from it.

This series has as its system dendritic cells. Kind of series: Oligolysine induced toxicity to dendritic cells. The format is cell-based. As to conditions: 1.5 μg/mL K20, different time intervals. The procedure:
FIGS. 15A and 15B show oligolysine induced toxicity to dendritic cells. FIG. 15A: Freshly harvested dendritic cells were incubated with 1.5 μg/mL K20 for different time intervals. […] FIG. 15B: Confocal image of dendritic cells incubated with oligolysine (K20) peptide-coated, cy5 labeled DNA nanostructure.

Regarding `NCCCC[C@H](NC(=O)[C@H](CCCCN)NC(=O)[C@H](CCCCN)NC(=O)[C@H](CCCCN)NC(=O)[C@H](CCCCN)NC(=O)[C@H](CCCCN)NC(=O)[C@H](CCCCN)NC(=O)[C@H](CCCCN)NC(=O)[C@H](CCCCN)NC(=O)[C@H](CCCCN)NC(=O)[C@H](CCCCN)NC(=O)[C@H](CCCCN)NC(=O)[C@H](CCCCN)NC(=O)[C@H](CCCCN)NC(=O)[C@H](CCCCN)NC(=O)[C@H](CCCCN)NC(=O)[C@H](CCCCN)NC(=O)[C@H](CCCCN)NC(=O)[C@H](CCCCN)NC(=O)[C@@H](N)CCCCN)C(=O)O` [K20] (H-KKKKKKKKKKKKKKKKKKKK-OH), the “appearance of dendritic cells under a microscope” value is recorded as “cells appeared healthy”.
